Data published in patent US9114177B2, “Block copolymer having phenylboronic acid group introduced therein, and use thereof” (THE UNIVERSITY OF TOKYO, priority 2011, dated 2015).

Legend:
[1] = cited from earlier work
[2] = siRNA diffusion time of block copolymer/siRNA complexes in serum solution (complex stability); format: physicochemical; conditions: siRNA not mixed with block copolymer, 50 nM, serum solution (10% FBS)
Description: A variety of block copolymers having different amino acid polymerization degrees and FPBA group contents were prepared as mentioned in Sections (1-i) to (1-iii) and (2-i) to (2-iii). It should be noted that PEG having a molecular weight (Mw) of 12,000 was used as methoxy-PEG-NH2. The block copolymers were mixed with siRNA fluorescently labeled with Cy3 so as to achieve an N/P ratio of 8. The resultant mixtures were left to stand still in a refrigerator for 1 to 2 hours and diluted with a serum solution (150 mM NaCl, 10 mM Hepes, 10% FBS) so as to achieve an siRNA concentration of 50 nM. The resultant diluted solutions were left to stand still at room temperature for about 1 hour, and the siRNA diffusion time was measured with a confocal laser scanning microscope (manufactured by Carl Zeiss, product name “LSM510”) (10 sec×10 times). It should be noted that, when the measurement was carried out in the same manner as above except that siRNA was not mixed with the block copolymer, the diffusion time (diffusion time of siRNA alone) was 157.5 μsec. It should be noted that GL3-siRNA was used as the siRNA.

[3] = Blood retention properties of complex; format: in vivo; conditions: mice, tail vein, 20 μg siRNA
Description: The block copolymer (PEG-PLL 12-23/43) and Cy5-GL3-siRNA were added to a 10 mM HEPES buffer (pH 7.3) so as to achieve an N/P ratio of 8 and an siRNA concentration of 7.5 μM, and the resultant was mixed and left to stand still for about 1 to 2 hours at room temperature to prepare a complex solution. The complex solution or a solution of the siRNA (10 mM HEPES buffer) was administered to the tail veins of mice (female Balb/C nude, 6-week-old, N=4) so that the dose was 20 μg of the siRNA, and the amount of the siRNA remaining in blood was determined over time.

| Compound | pKa [1] | diffusion time of siRNA alone [2] | siRNA remaining in blood at 10 minutes after administration [3] | siRNA remaining in blood at 1 hour after administration [3] |
| --- | --- | --- | --- | --- |
| OB(O)c1ccccc1 [phenylboronic acid] | 8 to 9 |  |  |  |
| GL3-siRNA: siRNA for firefly luciferase, SEQ ID NO: 5 and 6, fluorescently labelled (Cy3 or Cy5), tested alone (chain 1 CUUACGCUGACUACUUCGAUU; chain 2 UCGAAGUACUCAGCGUAAGUU; sense strand 5' end labeled with Cy3 (or Cy5), further chemistry not given here) |  | 157.5 μsec | about 10% | almost no siRNA remained |
